{
  "source": "patent US20050143350A1",
  "about": "“Combination drug therapy to treat obesity” (priority 2003, published 2005)",
  "key": {"[1]": {"assay": "Patient case records: body weight during co-administration of an anticholinesterase agent and an antidepressant", "type": "in vivo, human", "parameters": "Weight / Wt. Chg. / Δ Wt.: unit not given here", "conditions": "for Wt. Chg.: positive = loss", "from_the_text": "The following examples illustrate exemplified treatment regimens and resultant synergistic effects in achieving long-term stable weight loss by co-administering to an individual an anticholinesterase agent and an antidepressant. Each patient is given an alphanumeric designator."}, "[2]": {"conditions": "doses over 300 mg a day; cited from earlier work"}, "[3]": {"conditions": "in vivo; cited from earlier work"}, "P450 cytochrome": {"tested_on": "P450 cytochrome", "conditions": "cited from earlier work"}, "[4]": {"conditions": "patient R2, day 14, baseline 209.3, venlafaxine 75 mg alone, no rivastigmine"}, "[5]": {"conditions": "patient R2, day 35, baseline 209.3, venlafaxine 75 mg alone, no rivastigmine"}, "[6]": {"conditions": "patient R2, day 111, baseline 209.3, venlafaxine 75 mg alone, no rivastigmine"}, "[7]": {"conditions": "Patient B3, comments wrap over rows: 'Epigastric discomfort, no vomiting.' (day 70), 'Bowels a little loose' (day 126), 'Vomiting after rivastigmine at supper' (day 175), 'Diethylpropion made them vomit twice.' (day 189)"}},
  "note": "Entries after “also recorded” stand apart in the source; their conditions may differ.",
  "data": [
    {"smiles": "CCN(C)C(=O)Oc1cccc([C@H](C)N(C)C)c1", "note": "[Riva.]", "values": [
      {"measurement": "Comments: adverse effects", "setting": "[1]; patient M1, day 153, Tried 12 mg of Riva.", "value": "Caused vomit-; also recorded: ing, diarrhea,; also recorded: dizzy. B.P"},
      {"measurement": "B.P. (Comments)", "setting": "[1]; patient M1, day 153, Tried 12 mg of Riva., initial B.P. 140/100", "value": "88/64"}
    ]},
    {"smiles": "COc1ccc(C(CN(C)C)C2(O)CCCCC2)cc1", "note": "(stereo not shown) [Venlafaxine, venlafaxine]", "values": [
      {"measurement": "Δ Wt.", "setting": "[1]; Patient F1, change from baseline 214.5, positive = weight lost, visit day = Days column (7-512)", "value": 6.0},
      {"measurement": "Weight", "setting": "[1]; human, in vivo", "value": 208.5},
      {"measurement": "Weight", "setting": "[1]; [4]", "value": 207.5},
      {"measurement": "Wt. Chg.", "setting": "[1]; [4]", "value": 1.8},
      {"measurement": "Weight", "setting": "[1]; [5]", "value": 206.0},
      {"measurement": "Wt. Chg.", "setting": "[1]; [5]", "value": 3.3},
      {"measurement": "Weight", "setting": "[1]; [6]", "value": 213.3},
      {"measurement": "Wt. Chg.", "setting": "[1]; [6]", "value": "−4.0"},
      {"measurement": "patients with a mild increase in blood pressure", "setting": "[2]", "value": 15, "unit": "%"},
      {"measurement": "absorption, influence of food", "setting": "[3]", "value": "not influenced by the presence of food"}
    ]},
    {"smiles": "CCN(C)C(=O)Oc1cccc([C@H](C)N(C)C)c1", "note": "[Rivastigmine, rivastigmine]", "values": [
      {"measurement": "Comments (side effects)", "setting": "[1]; [7]", "value": "Vomiting"},
      {"measurement": "metabolism by the P450 cytochrome", "setting": "P450 cytochrome", "value": "not metabolized by the P450 cytochrome"}
    ]},
    {"smiles": "CN(C)C(=N)N=C(N)N", "note": "[Metformin]", "values": [
      {"measurement": "Comments (side effects)", "setting": "[1]; Patient B1, comment wraps over rows: 'Sweating and uncomfortable stomach in a.m.' (day 59), 'Metformin causes diarrhea'", "value": "diarrhea"}
    ]},
    {"smiles": "CCN(CC)C(C)C(=O)c1ccccc1", "note": "(stereo not shown) [Diethylpropion, diethylpropion]", "values": [
      {"measurement": "Comments (side effects)", "setting": "[1]; [7]", "value": "vomit"}
    ]}
  ]
}
